In this test the test system is Erysiphe graminis f.sp. hordei. The class given is in vivo. Particulars: 200 ppm.

Take `CC#CC(C)(C)NC(=O)C(COC)Oc1cc(Cl)cc(Cl)c1` (stereo not shown) [4(1), 2-(3,5-dichlorophenoxy)-3-methoxy-N-(4-methylpent-2-yn-4-yl)propionamide]: the “control of fungal infection” value is “at least 70%”.

The record behind these values is patent publication US7271130B2 (priority 2002, dated 2007).
